Reference: patent US12570675B2, “Boronic acid compounds” (LG CHEM, LTD., priority 2020, dated 2026)

Experiments:
[1] = target: Proteasome caspase-like activity (S26 protein from RPMI8226 cells) (Homo sapiens (Human), UniProt P28072); assay: Proteasome caspase-like activity inhibition (Z-Leu-Leu-Glu-AMC fluorogenic substrate, RPMI8226 cell extract); type: biochemical; conditions: S26 protein from RPMI8226 cell extract 2 ug/well, substrate 20 uM, 37° C., 90 minutes
Description: The abilities to inhibit the proteasome activity of the compounds described in the Examples of the present invention and boronic acid drugs were evaluated as follows.
RPMI8226 cells, which is a multiple myeloma cell line, were cultured and then separated by a centrifuge, and washed twice with phosphate buffered saline (PBS). 20 mM of a tris-HCl (pH 8.0) buffer solution was added to the washed cells, and the cells were disrupted by a homogenizer and centrifuged to obtain S26 protein from the supernatant. Suc-Leu-Leu-Val-Tyr-AMC, for a fluorogenic substrate for the chymotrypsin-like activity of the proteasome, and Z-Leu-Leu-Glu-AMC, for a fluorogenic substrate for the caspase-like activity, were purchased from Calbiochem, EMD Millipore and used. Into each well of a 96-well plate (opaque, black round bottom), 20 ul of the S26 protein (final RPMI8226 cell extract concentration: 2 ug/well), 10 ul of S26 proteasome inhibitor serially diluted from 10 uM (final DMSO concentration: 0.5%), and 20 ul of the fluorogenic substrate for the proteasome chymotrypsin-like or caspase-like activity (final concentration: 20 uM) were added and mixed and allowed to react in a 37° C. incubator for 90 minutes. The fluorescence of the fluorogenic substrate was measured by FlexStation II Fluorometer (Molecular Devices). The fluorescence inhibited by the compound diluted at each concentration was measured as the relative percentage value for the amount obtained from the treatment only with the S26 protein and the fluorogenic substrate. IC50 (inhibitory concentration 50) was expressed in terms of a concentration that inhibits 50% of the maximum fluorescence induced by the fluorogenic substrate.

[2] = target: Proteasome chymotrypsin-like activity (S26 protein from RPMI8226 cells) (Homo sapiens, UniProt P28074); type: biochemical; conditions: S26 protein from RPMI8226 cell extract 2 ug/well, substrate 20 uM, 37° C., 90 minutes; read-out: Proteasome chymotrypsin-like activity inhibition IC50
Procedure, shortened: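 RPMI8226 myeloma cell lysate (S26 fraction, 20 mM Tris-HCl pH 8.0; 2 ug/well) incubated with compound serially diluted from 10 uM (0.5% DMSO) and 20 uM Suc-LLVY-AMC (chymotrypsin-like) or Z-LLE-AMC (caspase-like) for 90 min at 37 °C. Fluorescence read; IC50 from % of uninhibited signal.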

Proteasome chymotrypsin-like activity (S26 protein from RPMI8226 cells), sequence (P28074 60-263 limits assumed): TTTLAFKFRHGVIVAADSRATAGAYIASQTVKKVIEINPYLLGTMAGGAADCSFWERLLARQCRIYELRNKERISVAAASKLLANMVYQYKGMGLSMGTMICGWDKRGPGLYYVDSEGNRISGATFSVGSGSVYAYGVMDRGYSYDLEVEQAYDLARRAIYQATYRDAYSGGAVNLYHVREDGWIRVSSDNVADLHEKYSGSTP
Proteasome caspase-like activity (S26 protein from RPMI8226 cells), sequence (P28072 whole entry): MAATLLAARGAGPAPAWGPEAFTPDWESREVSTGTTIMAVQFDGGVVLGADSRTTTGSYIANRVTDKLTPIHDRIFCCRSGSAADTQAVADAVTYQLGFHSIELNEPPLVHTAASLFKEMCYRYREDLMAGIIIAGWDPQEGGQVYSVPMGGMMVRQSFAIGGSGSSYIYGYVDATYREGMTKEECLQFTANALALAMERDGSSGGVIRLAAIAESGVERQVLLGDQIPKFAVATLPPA

Compound	IC50 [1]	IC50 [2]
COc1cccc(CC2(C(=O)N[C@@H](CC(C)C)B(O)O)CC(CNC(=O)c3nccc4ccccc34)=NO2)c1 (stereo partly drawn) [Example 100, ((1R)-1-(3-((isoquinolin-1-carboxamido)methyl)-5-(3-methoxybenzyl)-4,5-dihydroisoxazol-5-carboxamido)-3-methylbutyl)boronic acid]	> 1000 nM	< 10 nM
Cc1cc(C(=O)NCC2=NOC(Cc3ccccc3)(C(=O)N[C@@H](CC(C)C)B(O)O)C2)no1 (stereo partly drawn) [Example 107, ((1R)-1-(5-benzyl-3-((5-methylisoxazol-3-carboxamido)methyl)-4,5-dihydroisoxazol-5-carboxamido)-3-methylbutyl)boronic acid]	> 500 nM	< 10 nM
CC(C)C[C@H](NC(=O)C1(Cc2ccccc2)CC(CNC(=O)c2cc(C(F)(F)F)ccc2Cl)=NO1)B(O)O (stereo partly drawn) [Example 112, ((1R)-1-(5-benzyl-3-((2-chloro-5-(trifluoromethyl)benzamido)methyl)-4,5-dihydroisoxazol-5-carboxamido)-3-methylbutyl)boronic acid]	> 2500 nM	< 10 nM
CC(C)C[C@H](NC(=O)C1(Cc2ccccc2)CC(CNC(=O)c2cccc3cccnc23)=NO1)B(O)O (stereo partly drawn) [Example 113, ((1R)-1-(5-benzyl-3-((quinolin-8-carboxamido)methyl)-4,5-dihydroisoxazol-5-carboxamido)-3-methylbutyl)boronic acid]	> 500 nM	< 10 nM
CC(C)C[C@H](NC(=O)C1(Cc2ccccc2)CC(CNC(=O)c2cccc3c2CCCC3)=NO1)B(O)O (stereo partly drawn) [Example 115, ((1R)-1-(5-benzyl-3-((5,6,7,8-tetrahydronaphthalen-1-carboxamido)methyl)-4,5-dihydroisoxazol-5-carboxamido)-3-methylbutyl)boronic acid]	> 1000 nM	< 10 nM
CC(C)C[C@H](NC(=O)C1(Cc2ccccc2)CC(CNC(=O)c2cccc3ncccc23)=NO1)B(O)O (stereo partly drawn) [Example 116, ((1R)-1-(5-benzyl-3-((quinolin-5-carboxamido)methyl)-4,5-dihydroisoxazol-5-carboxamido)-3-methylbutyl)boronic acid]	> 2500 nM	< 10 nM
Cc1nc(C(=O)NCC2=NOC(Cc3ccccc3)(C(=O)N[C@@H](CC(C)C)B(O)O)C2)cs1 (stereo partly drawn) [Example 117, ((1R)-1-(5-benzyl-3-((2-methylthiazol-4-carboxamido)methyl)-4,5-dihydroisoxazol-5-carboxamido)-3-methylbutyl)boronic acid]	> 1000 nM	< 10 nM
Cc1nc(C(=O)NCC2=NOC(Cc3ccccc3)(C(=O)N[C@@H](CC(C)C)B(O)O)C2)c(Cl)s1 (stereo partly drawn) [Example 119, ((1R)-1-(5-benzyl-3-((5-chloro-2-methylthiazol-4-carboxamido)methyl)-4,5-dihydroisoxazol-5-carboxamido)-3-methylbutyl)boronic acid]	> 1000 nM	< 10 nM
CC(C)C[C@H](NC(=O)C1(Cc2ccccc2)CC(CNC(=O)c2c[nH]c3ccccc23)=NO1)B(O)O (stereo partly drawn) [Example 124, ((1R)-1-(3-((1H-indol-3-carboxamido)methyl)-5-benzyl-4,5-dihydroisoxazol-5-carboxamido)-3-methylbutyl)boronic acid]	> 500 nM	< 10 nM
Cc1cccc(CC2(C(=O)N[C@@H](CC(C)C)B(O)O)CC(CNC(=O)c3nccc4ccccc34)=NO2)c1 (stereo partly drawn) [Example 125, ((1R)-1-(3-((isoquinolin-1-carboxamido)methyl)-5-(3-methylbenzyl)-4,5-dihydroisoxazol-5-carboxamido)-3-methylbutyl)boronic acid]	> 500 nM	< 10 nM
CC(C)C[C@H](NC(=O)C1(COc2ccccc2)CC(CNC(=O)c2nccc3ccccc23)=NO1)B(O)O (stereo partly drawn) [Example 126, ((1R)-1-(3-((isoquinolin-1-carboxamido)methyl)-5-(phenoxymethyl)-4,5-dihydroisoxazol-5-carboxamido)-3-methylbutyl)boronic acid]	> 500 nM	< 10 nM
CC(C)C[C@H](NC(=O)C1(Cc2ccccc2)CC(CNC(=O)c2cccc3[nH]ccc23)=NO1)B(O)O (stereo partly drawn) [Example 127, ((1R)-1-(3-((1H-indol-4-carboxamido)methyl)-5-benzyl-4,5-dihydroisoxazol-5-carboxamido)-3-methylbutyl)boronic acid]	> 500 nM	< 10 nM
CC(C)C[C@H](NC(=O)C1(Cc2ccccc2)CC(CNC(=O)c2ccc3c(ccn3C(C)C)c2)=NO1)B(O)O (stereo partly drawn) [Example 129, ((1R)-1-(5-benzyl-3-((1-isopropyl-1H-indol-5-carboxamido)methyl)-4,5-dihydroisoxazol-5-carboxamido)-3-methylbutyl)boronic acid]	> 250 nM	< 10 nM
Cc1nc(C)c(C(=O)NCC2=NOC(Cc3ccccc3)(C(=O)N[C@@H](CC(C)C)B(O)O)C2)s1 (stereo partly drawn) [Example 130, ((1R)-1-(5-benzyl-3-((2,4-dimethylthiazol-5-carboxamido)methyl)-4,5-dihydroisoxazol-5-carboxamido)-3-methylbutyl)boronic acid]	> 500 nM	< 10 nM
CC(C)C[C@H](NC(=O)C1(Cc2ccccc2)CC(CNC(=O)c2cccn3ccnc23)=NO1)B(O)O (stereo partly drawn) [Example 132, ((1R)-1-(5-benzyl-3-((imidazo[1,2-a]pyridin-8-carboxamido)methyl)-4,5-dihydroisoxazol-5-carboxamido)-3-methylbutyl)boronic acid]	> 250 nM	< 10 nM
Cc1nc2ccccn2c1C(=O)NCC1=NOC(Cc2ccccc2)(C(=O)N[C@@H](CC(C)C)B(O)O)C1 (stereo partly drawn) [Example 133, ((1R)-1-(5-benzyl-3-((2-methylimidazo[1,2-a]pyridin-3-carboxamido)methyl)-4,5-dihydroisoxazol-5-carboxamido)-3-methylbutyl)boronic acid]	> 500 nM	< 10 nM
CC(C)C[C@H](NC(=O)C1(Cc2ccccc2)CC(CNC(=O)c2cccc3c2ccn3C(C)C)=NO1)B(O)O (stereo partly drawn) [Example 134, ((1R)-1-(5-benzyl-3-((1-isopropyl-1H-indol-4-carboxamido)methyl)-4,5-dihydroisoxazol-5-carboxamido)-3-methylbutyl)boronic acid]	> 500 nM	< 10 nM
CC(C)C[C@H](NC(=O)C1(Cc2ccccc2)CC(CNC(=O)c2cccc3c2ccn3C)=NO1)B(O)O (stereo partly drawn) [Example 138, ((1R)-1-(5-benzyl-3-((1-methyl-1H-indol-4-carboxamido)methyl)-4,5-dihydroisoxazol-5-carboxamido)-3-methylbutyl)boronic acid]	> 500 nM	< 10 nM
Cc1nc(C)c(C(=O)NCC2=NOC(COc3ccccc3)(C(=O)N[C@@H](CC(C)C)B(O)O)C2)s1 (stereo partly drawn) [Example 141, ((1R)-1-(3-((2,4-dimethylthiazol-5-carboxamido)methyl)-5-(phenoxymethyl)-4,5-dihydroisoxazol-5-carboxamido)-3-methylbutyl)boronic acid]	> 500 nM	< 10 nM
CC(C)C[C@H](NC(=O)C1(Cc2ccccc2)CC(CNS(=O)(=O)c2cc(Cl)ccc2Cl)=NO1)B(O)O (stereo partly drawn) [Example 143, ((1R)-1-(5-benzyl-3-(((2,5-dichlorophenyl)sulfonamido)methyl)-4,5-dihydroisoxazol-5-carboxamido)-3-methylbutyl)boronic acid]	> 500 nM	< 10 nM
CC(C)C[C@H](NC(=O)C1(Cc2ccccc2)CC([C@H](C)NC(=O)c2nccc3ccccc23)=NO1)B(O)O (stereo partly drawn) [Example 145, ((1R)-1-(5-benzyl-3-((S)-1-(isoquinolin-1-carboxamido)ethyl)-4,5-dihydroisoxazol-5-carboxamido)-3-methylbutyl)boronic acid]	> 2500 nM	< 10 nM
CC(C)C[C@H](NC(=O)C1(Cc2ccccc2)CC([C@@H](NC(=O)c2nccc3ccccc23)C(C)C)=NO1)B(O)O (stereo partly drawn) [Example 148, ((1R)-1-(5-benzyl-3-((S)-1-(isoquinolin-1-carboxamido)-2-methylpropyl)-4,5-dihydroisoxazol-5-carboxamido)-3-methylbutyl)boronic acid]	> 1000 nM	< 25 nM
Cc1cnc(C(=O)NCC2=NOC(Cc3ccccc3)(C(=O)N[C@@H](CC(C)C)B(O)O)C2)cn1 (stereo partly drawn) [Example 151, [(1R)-1-[[5-benzyl-3-[[(5-methylpyrazin-2-carbonyl)amino]methyl]-4H-1,2-oxazol-5-carbonyl]amino]-3-methyl-butyl]boronic acid]	> 250 nM	< 10 nM
CC(C)C[C@H](NC(=O)C1(Cc2ccccc2)CC([C@H](CC(C)C)NC(=O)c2nccc3ccccc23)=NO1)B(O)O (stereo partly drawn) [Example 152, ((1R)-1-(5-benzyl-3-((S)-1-(isoquinolin-1-carboxamido)-3-methylbutyl)-4,5-dihydroisoxazol-5-carboxamido)-3-methylbutyl)boronic acid]	> 1000 nM	< 10 nM
